Measured values from publication PMC11212140, “Molecular Bidents with Two Electrophilic Warheads as a New Pharmacological Modality” (ACS Central Science, 2024).

How the values were obtained:
[1] = test system: CaMK2a, CaMK2b, CaMK2d, CaMK2g; assay: KiNativ profiling in H3255 cells; assay type: cell-based; conditions: 2.5 µM; Lys2; DLKPENLLLASK
Procedure: (§1) H3255 cells were plated with 6.5x10^6 per condition in fresh media in 15 cm plates and treated the 80% confluency for 2 hours with DMSO or 2.5 μM of ZNL-0056. To harvest cells, plates were washed 3 times with cold PBS, then collected by scraping into 4 mL of cold PBS containing protease and phosphatase inhibitors. Cells were pelleted by centrifugation at 1350 g at 4 ℃ for 5 minutes and immediately frozen in liquid nitrogen. The frozen samples were sent to ActivX Biosciences (La Jolla, CA) for the remainder of the KiNativ profiling experiment4. […]

CLK1 = test system: T1, CLK1; assay: KiNativ profiling in H3255 cells; assay type: cell-based, human; conditions: 2.5 µM; Lys2; LTHTDLKPENILFVQSDYTEAYNPK
T1 construct: purchased ActivX Biosciences (KiNativ)
Procedure: (§2) Cellular target engagement assays […]
as §1

DNAPK = test system: T2, DNAPK; assay: KiNativ profiling in H3255 cells; assay type: cell-based, human; conditions: 2.5 µM, ATP
T2 construct: purchased ActivX Biosciences (KiNativ)
Procedure: as §2, §1

MAP2K2 = test system: T3, MAP2K2; assay: KiNativ profiling in H3255 cells; assay type: cell-based, human; conditions: 2.5 µM; Lys2; HQIMHRDVKPSNILVNSR
T3 construct: purchased ActivX Biosciences (KiNativ)
Procedure: as §2, §1

MST3, MST4, YSK1 = assay: KiNativ profiling in H3255 cells; assay type: cell-based, human; conditions: 2.5 µM; Activation Loop; LADFGVAGQLTDTQIKR
Procedure: as §2, §1

RSK1 domain1 = test system: T4, RSK1 domain1; assay: KiNativ profiling in H3255 cells; assay type: cell-based, human; conditions: 2.5 µM
T4 construct: RSK1 domain1; purchased ActivX Biosciences (KiNativ)
Procedure: as §2, §1

TAO1, TAO3 = assay: KiNativ profiling in H3255 cells; assay type: cell-based, human; conditions: 2.5 µM; Lys2; DIKAGNILLTEPGQVK
Procedure: as §2, §1

H3255 cells = assay: Cell viability assay (CellTiter-Glo); assay type: cell-based; conditions: Homo sapiens, NCI-H3255, 72 h of treatment
Procedure: (A) Dose–response curves for ZNL-0056 and osimertinib in H3255 cells following 72 h of treatment. Cell viability was assessed with CellTiter-Glo. Data are presented as the mean ± SEM (n = 4). Representative data from three independent experiments are shown. (B) Immunoblot assessment of the effect of ZNL-0056 on EGFR signaling pathway in H3255 cells after 6 h treatment. Representative blots from two independent experiments are shown. […] TEXT PRINTED IN THE PICTURE: (A) ZNL-0056: H3255: IC50 (nM): 471.3 | (A) Osimertinib: H3255: IC50 (nM): 27.76 […]
For infection of Ba/F3 cells, 2.5 mL of viral supernatant and 8 μg/mL polybrene was added to 2.5 million cells per well in six-well plates. […]
Cells were lysed in RIPA buffer (150 mM NaCl, 1.0% IGEPAL® CA-630, 0.5% sodium deoxycholate, 0.1% SDS, 50 mM Tris, pH 8.0) (Sigma, Cat# R0278) with protease inhibitor and phosphatase inhibitor (Roche). The protein concentrations were measured by BCA analysis (Thermo Fisher Scientific, Cat # PI23225). […]
or IRDye 680RD goat anti-Mouse IgG (LICOR Biosciences , Cat # 926-68070) secondary antibodies at room temperature for 1 hour. The membranes were detected on Odyssey CLx system. […]
treatment. Cell viability was determined by using CellTiter-Glo (Promega #G7571) according to the manufacturer’s instructions, measuring luminescence using an Envision plate-reader (PerkinElmer Inc.). […]

[2] = Activation Loop, LTDFGLSKEAIDHEKK

C=CC(=O)Nc1cc(Nc2nccc(-c3cn(C)c4ccccc34)n2)c(OC)cc1N(C)CCN(C)C [Osimertinib, osimertinib, reference compound]
Inhibition [1]: 3.2%
Inhibition (CLK1): 21.2%
Inhibition (DNAPK; EHPFLVKGGEDLR): 29.9%
Inhibition (DNAPK; KGGSWIQEINVAEK): 7.8%
Inhibition (MAP2K2): 12.1%
Inhibition (MST3, MST4, YSK1): -4.8%
Inhibition (RSK1 domain1; [2]): -14.9%
Inhibition (RSK1 domain1; Lys1, KVTRPDSGHLYAMKVLK): -11.7%
Inhibition (TAO1, TAO3): 6.6%
IC50 (H3255 cells): 27.8 nM

C=CC(=O)Nc1cc(C(=O)Nc2nc3cccc(C)c3n2[C@@H]2CCCCN(C(=O)C=C)C2)cs1 [ZNL-0056]
Inhibition [1]: -8.1%
Inhibition (CLK1): -15.4%
Inhibition (DNAPK; EHPFLVKGGEDLR): 26.5%
Inhibition (DNAPK; KGGSWIQEINVAEK): -18.3%
Inhibition (MAP2K2): 5.5%
Inhibition (MST3, MST4, YSK1): 12.7%
Inhibition (RSK1 domain1; [2]): 5.8%
Inhibition (RSK1 domain1; Lys1, KVTRPDSGHLYAMKVLK): -35.1%
Inhibition (TAO1, TAO3): -18.6%
IC50 (H3255 cells): 471 nM
